# Legend:
# [1] = PAMPA permeability measurement (Example 5); type: in vitro ADME; settings: redispersed in distilled water; receiver phosphate buffered saline with 1% sodium lauryl sulphate; UV at 248 nm
# Protocol: Reference Ezetimibe and solid nanostructured Ezetimibe was redispersed in distilled water and permeability was measured across and artificial membrane composed of dodecane with 20% soy lecithin. The sample containing the reference compound was a suspension of crystals visible by the naked eye, while the nanostructured sample was an opalescent colloid solution. The receiver compartment was phosphate buffered saline with 1% sodium lauryl sulphate.
# [2] = cited from earlier work
# [3] = cited from earlier work; remark: listed apart in the source
# [4] = Solubility by UV-VIS measurement (Example 1); type: physicochemical; settings: room temperature, UV-VIS at 248 nm, filtered by 100 nm syringe filter
# Protocol: The solubility of nanostructured Ezetimibe compared to the reference form of the active compound was determined in distilled water and 0.05% SDS solution by UV-VIS measurements (Thermo Genesys 10S spectrophotometer) at 248 nm wavelength and room temperature. The redispersed sample was filtered by 100 nm disposable syringe filter.
# human plasma proteins = settings: cited from earlier work
Structure (SMILES),PAMPA permeability [1],stability ([2]; ambient temperature),"solubility in ethanol, methanol and acetone (descriptive) ([2]; ethanol, methanol, acetone)",solubility in water (descriptive) ([2]; water),deviation from dose proportionality ([3]; between 5 and 20 mg),"increase of Cmax with food ([3]; consumption of high-fat meals, ZETIA 10-mg tablets) [%]","effect of concomitant food on extent of absorption ([3]; high-fat or non-fat meals, ZETIA 10-mg tablets)",bioavailability (estimated) ([3]; oral),solubility in 0.05% SDS solution ([4]; 0.05% SDS solution),solubility in distilled water ([4]; distilled water),"mean peak plasma concentration (Cmax) ([3]; in vivo, po, 10 mg) [ng/mL]","tmax ([3]; in vivo, po, 10 mg) [h]",bound to human plasma proteins (human plasma proteins) [%]
"O=C1[C@H](CC[C@H](O)c2ccc(F)cc2)[C@@H](c2ccc(O)cc2)N1c1ccc(F)cc1 [Ezetimibe, 1-(4-fluorophenyl)-3(R)-[3-(4-fluorophenyl)-3(S)-hydroxypropyl]-4(S)-(4-hydroxyphenyl)-2-azetidinone]",under the detection limit,stable at ambient temperature,freely to very soluble,practically insoluble,no substantial deviation from dose proportionality,38,no effect,35-65%,under the detection limit,under the detection limit,–,–,–
O=C(O)[C@H]1O[C@@H](Oc2ccc([C@@H]3[C@@H](CC[C@H](O)c4ccc(F)cc4)C(=O)N3c3ccc(F)cc3)cc2)[C@H](O)[C@@H](O)[C@@H]1O [Ezetimibe-glucuronide],–,–,–,–,–,–,–,–,–,–,45 to 71,1 to 2,> 90
